# Source: patent EP0212479A1, “Use of lactam amides as efficiency improvers in animals” (BAYER AG, priority 1985, dated 1987)
# Test: Rat feeding trial (Ratten-Fütterungsversuch), growth promotion
# Type: in vivo, Laborratten vom Typ SPF Wistar
# Settings: female rats 90-110 g, active substance in feed ad lib, Dosis 25 ppm, 13-day trial, weight gain relative to Kontrolle = 100
# Description: Weibliche Laborratten 90-110 g schwer vom Typ SPF Wistar tZüchtung Hagemann) werden ad lib mit Standard Rattenfutter, das mit der gewünschten Menge Wirkstoff versetzt ist, gefüttert. Jeder Versuchsansatz wird mit Futter der identischen Charge durchgeführt, so daß Unterschiede in der Zusammensetzung des Futters die Vergleichbarkeit der Ergebnisse nicht beeinträchtigen können.
# Die Ratten erhalten Wasser ad lib.
# Jeweils 12 Ratten bilden eine Versuchsgruppe und werden mit Futter, das mit der gewünschten Menge Wirkstoff versetzt ist gefüttert. Eine Kontrollgruppe erhält Futter ohne Wirkstoff. Das durchschnittliche Körpergewicht sowie die Streuung in den Körpergewichten der Ratten ist in jeder Versuchsgruppe gleich, so daß eine Vergleichbarkeit der Versuchsgruppen untereinander gewährleistet ist.
# Während des 13-tägigen Versuchs werden Gewichtszunahme und Futterverbrauch bestimmt.
# Es werden die aus der Tabelle ersichtlichen Ergebnisse erhalten: […]
row,Compound,Zuwachs
1,FC(F)(F)c1cccc(CNC2=NCCCCC2)c1 [14 (Maleinat)],117
2,CC(C)c1ccc(C(F)(F)F)cc1CNC1=NCCCCC1 [Beispiel 9],104
3,CC(NC1=NCCCCC1)c1cccc(C(F)(F)F)c1 (stereo not drawn) [Beispiel 1],111
4,"FC(F)(F)c1cccc(CNC2=NCCCCC2)c1 [Beispiel 13, 2-(3-Trifluormethyl-benzylamino)-tetrahydroazepin]",112
5,FC(F)(F)c1ccccc1CNC1=NCCCCC1 [Beispiel 10],107
6,FC(F)(F)c1ccc(CNC2=NCCCCC2)cc1 [Beispiel 3],107
